Assay results taken from patent US20170112748A1, “N-ACYLPEPTIDE DERIVATIVES AND THEIR USES” (NeoStrata Company, Inc., priority 2012, published 2017).

Columns and labels:
Type in all cases: in vivo, human
[1] = topical treatment of chronic dermatoses with scaly skin and itch, clinical evaluation; details: Example 11: subject
Description: The subject topically applied twice daily a pentapeptide derivative, N-Ac-L-Ala-L-Leu-L-Lys-L-His-L-Arg-NH2 (SEQ ID NO: 51) 0.2% (w/v) in WEP442, pH 3.4, as prepared in Example 2. […] The treated skin had 80-90% improvement as judged by clinical evaluation.

[2] = summary of test results in volunteer subjects, efficacy grades; details: efficacy grade
Description: Subject 1. Person had multiple red and itchy inflammation, dermatitis, or eczema lesions, which were resistant to conventional treatments including corticosteroids. Subject 2. Person had small red and itchy lesions which were resistant to topical corticosteroid treatment. Subject 3. Person had multiple red and itchy inflammation, dermatitis, or eczema lesions over the body for many years, which were resistant to conventional treatments including corticosteroids. Subject 4. Person had red and itchy inflammation, dermatitis, or eczema lesions for many years, which were resistant to topical corticosteroid treatment. Subject 5. Person had early stage of aging related skin changes on both forearms as indicated by age spots and wrinkled skin caused by solar damage. Subject 6. Person had age spots, keratoses and wrinkles on both forearms caused by intrinsic and extrinsic aging. Subject 7. Person had age spots, and wrinkles on both forearms caused by intrinsic and extrinsic aging. Subject 8. Person had osteoarthritis of both knees with inflammation and pain for more than 4 years, and had only mild transitory relief from conventional treatments. Subject 9. Person had sensitive skin with inflammatory lesions on the body. Subject 12. Person had dermatitis and inflammatory lesions on the left palm. Subject 14. Person had multiple age spots including lentigines and keratosis on their face. Subject 15. Person had psorisis Subject 16. Person had sensitive skin and eczema for more than 40 years
In another embodiment, the volunteer subject topically applied the test compositions containing N-acylpeptide derivatives of the present invention on involved skin or lesions once or twice daily for several weeks or until the involved lesions completely cleared and clinically changed to normal skin. As a control study, the subject also topically applied a vehicle control composition on the involved skin or lesions twice daily for the same period.
In yet another embodiment, the volunteer subject topically applied once or twice daily the test compositions containing N-acylpeptide derivatives of the present invention on the skin site above arthritic joints or painful muscles to provide therapeutic effects for the systemic disorders via topical administration.
In yet another embodiment, the volunteer subject injected intra-articularly into a knee joint a test composition containing a N-acylpeptide derivative of the present invention to improve and reduce arthritic inflammation and pain of the joint.
Some test results are summarized as follows.
DK: Disturbed keratinization AG: Aging related changes of skin, nail and hair DI: Deranged immune disorders and inflammation ND: Nerve disorders CA: Tumors and/or cancers

[3] = appetite for food after topical application on forehead; details: Example 12: subject, 0.3% (w/v) in WEP442 once on forehead one hour before dinner
Method: A subject, having normal and regular eating habit, topically applied once N-Ac-L-Tyr-L-Tyr-L-Tyr-NH2, 0.3% (w/v) in WEP442, pH 5.9 prepared according to Example 2 on their forehead one hour before the regular dinner time. After about 50-60 minutes of the topical application, the subject strated to feel loss of appetite for food.

[4] = skin plump / skin thickness test after topical application, caliper measurement
Method: In one of the studies related to skin changes associated with aging, skin thickness was measured by micrometer calipers as follows.
The skin was grasped with a 2×6 cm metal hinge: the internal faces of which were coated with emery cloth to prevent slippage, and manually squeezed to threshold subject discomfort. Combined thickness of two whole-skin layers including thickness of the two hinge leaves was measured with micrometer calipers. Thickness of the two hinge leaves was subtracted to determine the actual thickness of two whole-skin layers. Triplicate measurements on treated sites were done and an average number was used for calculation of the skin thickness.
In other studies, test sites of skin 17 mm in diameter were used, the circular sites were marked with permanent ink. Intervening control sites were also 17 mm in diameter. Thickness of skin of all sites was measured directly by means of an electronic digital caliper. In this instance the jaws of the caliper were opened to 17 mm, applied with pressure to the skin sites and then closed to firm tightness. Thickness of skin was then read off the screen of the calipers. Measurements of all sites were made in triplicates. […]

[5] = topical treatment of bilateral inter-metacarpal atrophy of hands; details: Example 23: subject, 1% (w/v) in WEP442 twice daily after the first course
Description: A subject had bilateral inter-metacarpal atrophy of both hands with certain restrictions of hand movements. The subject topically applied two to three times daily N-Ac-L-Tyr-L-Tyr-L-Tyr-OEt, 2% (w/v) in EP73 on the back of their left hand, and vehicle control EP73 on the back of their right hand for three weeks.
The subject now, topically applied twice daily N-Ac-L-Tyr-L-Tyr-L-Tyr-NH2, 1% (w/v) in WEP442 on the back of their left hand as a mantenace therapy.

[6] = topical treatment of chronic inflammation, erythema, eczema with thick scales and itch, clinical evaluation; details: Example 10: subject, -NH2 0.3% and -OEt 0.5% (w/v) in WEP442
Description: The involved skin was divided into two lesions for testing. The subject topically applied twice daily to one lesion, N-Ac-L-Tyr-L-Tyr-L-Tyr-NH2 0.3% (w/v) in WEP442, pH 5.9 solution composition, prepared according to Example 2, and to second lesion, N-Ac-L-Tyr-L-Tyr-L-Tyr-OEt 0.5% (w/v) in WEP 442, pH 6.0, prepared according to Example 2. […] The treated skin had 90-95% improvement as judged by clinical evaluation.

[7] = topical treatment of plaque psoriasis, clinical evaluation; details: Example 13: subject, 0.2% (w/w) in cream twice daily, 3 weeks
Description: A subject, having plaque psoriasis, topically applied twice daily N-Ac-L-Tyr-L-Tyr-L-Tyr-NH2 0.2% (w/w) in cream to plaque lesions for 3 weeks. The treated lesions started to improve after a few days of topical application. […] The treated lesions had 40-50% improvement as judged by clinical evaluation.

[8] = anxiety, stress and mood disorders after topical application on forehead; details: Example 16: subject, 0.2% in WEP442 on forehead, after two hours
Description: A subject had mild forms of anxiety, stress and mood disorders which provoked restlessness, lack of concentration, and mild depression. […] The subject then topically applied N-Ac-L-Val-L-Tyr-L-Tyr-NH2, 0.2% in WEP442 on their forehead.

Substance: N-Ac-L-Ala-L-Leu-L-Lys-L-His-L-Arg-NH2 (Ac-ALKHR-NH2)
- itch ([1]; 0.2% (w/v) in WEP442 pH 3.4 topical): stopped within a few minutes
- improvement as judged by clinical evaluation ([1]; right leg, 0.2% (w/v) in WEP442 pH 3.4 twice daily, 2 weeks): 80-90%
- AG: Aging related changes of skin, nail and hair [2]: 3+ (3+: 75% Efficacy)
- DI: Deranged immune disorders and inflammation [2]: 4+ (4+: 95-100% Efficacy)
- DK: Disturbed keratinization [2]: 3+ (3+: 75% Efficacy)
- ND: Nerve disorders [2]: 3+ (3+: 75% Efficacy)

Substance: N-Ac-L-Arg-L-Arg-L-Arg-NH2
- AG: Aging related changes of skin, nail and hair [2]: 2+ (2+: 50% Efficacy)
- DI: Deranged immune disorders and inflammation [2]: 2+ (2+: 50% Efficacy)
- DK: Disturbed keratinization [2]: 2+ (2+: 50% Efficacy)
- ND: Nerve disorders [2]: 2+ (2+: 50% Efficacy)

Substance: N-Ac-L-Ser-L-Ser-L-Ser-NH2
- AG: Aging related changes of skin, nail and hair [2]: 2+ (2+: 50% Efficacy)
- DI: Deranged immune disorders and inflammation [2]: 2+ (2+: 50% Efficacy)
- DK: Disturbed keratinization [2]: 2+ (2+: 50% Efficacy)
- ND: Nerve disorders [2]: 2+ (2+: 50% Efficacy)

Substance: N-Ac-L-Tyr-L-Tyr-L-Tyr-NH2
- amount of food eaten at dinner [3]: only half the amount of food they usually would consume
- time after topical application until loss of appetite for food was felt [3]: 50 to 60 min
- increase in skin thickness ([4]; Example 8: subject, severe photodamage, right wrist distal, 0.5% (w/v) in WEP721 three times daily, 7 days): 5-10%
- increased skin thickness ([4]; Example 20: subject, photoaging forearms, 0.8% (w/v) in WEP442 three times daily, four weeks): ~15%
- increased skin thickness ([4]; Example 20: subject, photoaging forearms, 1% (w/v) in WEP442 three times daily, four weeks): ~28%
- increased skin thickness ([4]; Example 21: subject, sun damaged forearms, 1% (w/v) in WEP442 three times daily, one week): ~24%
- inter-metacarpal atrophy of left hand, maintenance therapy [5]: continued to improve with no signs of inter-metacarpal atrophy
- AG: Aging related changes of skin, nail and hair [2]: 4+ (4+: 95-100% Efficacy)
- DI: Deranged immune disorders and inflammation [2]: 4+ (4+: 95-100% Efficacy)
- DK: Disturbed keratinization [2]: 4+ (4+: 95-100% Efficacy)
- ND: Nerve disorders [2]: 4+ (4+: 95-100% Efficacy)
- itch [6]: stopped within a few minutes
- improvement of treated lesions as judged by clinical evaluation [7]: 40-50%

Substance: N-Ac-L-Val-L-Tyr-L-Tyr-NH2
- effect on anxiety, stress and mood disorders [8]: anxiety, stress and mood disorders started to disappear
- AG: Aging related changes of skin, nail and hair [2]: 3+ (3+: 75% Efficacy)
- DI: Deranged immune disorders and inflammation [2]: 2+ (2+: 50% Efficacy)
- DK: Disturbed keratinization [2]: 2+ (2+: 50% Efficacy)
- ND: Nerve disorders [2]: 4+ (4+: 95-100% Efficacy)

Substance: N-Ac-L-Val-L-Val-L-Ala-NH2
- AG: Aging related changes of skin, nail and hair [2]: 2+ (2+: 50% Efficacy)
- DI: Deranged immune disorders and inflammation [2]: 2+ (2+: 50% Efficacy)
- DK: Disturbed keratinization [2]: 2+ (2+: 50% Efficacy)
- ND: Nerve disorders [2]: 3+ (3+: 75% Efficacy)

Substance: N-Bz-L-Ala-L-Leu-L-Lys-L-His-L-Arg-NH2 (ALKHR; HELM PEPTIDE1{[O=C(c1ccccc1)[*:2]].A.L.K.H.R.[am]}$$$$V2.0; SMILES CC(C)C[C@H](NC(=O)[C@H](C)NC(=O)c1ccccc1)C(=O)N[C@@H](CCCCN)C(=O)N[C@@H](Cc1c[nH]cn1)C(=O)N[C@@H](CCCNC(=N)N)C(N)=O)
- AG: Aging related changes of skin, nail and hair [2]: 4+ (4+: 95-100% Efficacy)
- DI: Deranged immune disorders and inflammation [2]: 3+ (3+: 75% Efficacy)
- DK: Disturbed keratinization [2]: 3+ (3+: 75% Efficacy)
- ND: Nerve disorders [2]: 2+ (2+: 50% Efficacy)

Substance: N-Pr-L-Ala-L-Leu-L-Lys-L-His-L-Arg-NH2 (ALKHR; HELM PEPTIDE1{[CCC(=O)[*:2]].A.L.K.H.R.[am]}$$$$V2.0; SMILES CCC(=O)N[C@@H](C)C(=O)N[C@@H](CC(C)C)C(=O)N[C@@H](CCCCN)C(=O)N[C@@H](Cc1c[nH]cn1)C(=O)N[C@@H](CCCNC(=N)N)C(N)=O)
- AG: Aging related changes of skin, nail and hair [2]: 2+ (2+: 50% Efficacy)
- DI: Deranged immune disorders and inflammation [2]: 2+ (2+: 50% Efficacy)
- DK: Disturbed keratinization [2]: 2+ (2+: 50% Efficacy)
- ND: Nerve disorders [2]: 2+ (2+: 50% Efficacy)
